Laboratory results taken from ChEMBL document CHEMBL3813607, “New antitumour agents with α,β-unsaturated δ-lactone scaffold: Synthesis and antiproliferative activity of (-)-cleistenolide and analogues” (Bioorg Med Chem Lett, 2016).
pIC50: −log10 of the molar value.

Assays:
[1] = tested on: K562; test: Cytotoxicity against human K562 cells assessed as cell growth inhibition after 72 hrs by MTT assay; assay type: functional, cell-based; settings: K562, 72 h
[2] = Cytotoxicity against human HL60 cells assessed as cell growth inhibition after 72 hrs by MTT assay; assay type: functional, cell-based; settings: HL-60, 72 h
[3] = tested on: Jurkat; test: Cytotoxicity against human Jurkat cells assessed as cell growth inhibition after 72 hrs by MTT assay; assay type: functional, cell-based
[4] = tested on: Raji; test: Cytotoxicity against human Raji cells assessed as cell growth inhibition after 72 hrs by MTT assay; assay type: functional, cell-based
[5] = tested on: MCF7; test: Cytotoxicity against human MCF7 cells assessed as cell growth inhibition after 72 hrs by MTT assay; assay type: functional, cell-based; settings: MCF7, 72 h
[6] = tested on: MDA-MB-231; test: Cytotoxicity against human MDA-MB-231 cells assessed as cell growth inhibition after 72 hrs by MTT assay; assay type: functional, cell-based; settings: MDA-MB-231, 72 h
[7] = tested on: HeLa; test: Cytotoxicity against human HeLa cells assessed as cell growth inhibition after 72 hrs by MTT assay; assay type: functional, cell-based
[8] = tested on: A549; test: Cytotoxicity against human A549 cells assessed as cell growth inhibition after 72 hrs by MTT assay; assay type: functional, cell-based; settings: A549, 72 h
[9] = tested on: MRC5; test: Cytotoxicity against human MRC5 cells assessed as cell growth inhibition after 72 hrs by MTT assay; assay type: functional, cell-based; settings: MRC5, 72 h
[10] = tested on: A549; test: Potency index, ratio of Doxorubicin IC50 to ratio of compound IC50 for human A549 cells; assay type: functional
[11] = tested on: MDA-MB-231; test: Potency index, ratio of Doxorubicin IC50 to ratio of compound IC50 for human MDA-MB-231 cells; assay type: functional

Row | SMILES | pIC50 [1] | pIC50 [2] | pIC50 [3] | pIC50 [4] | pIC50 [5] | pIC50 [6] | pIC50 [7] | pIC50 [8] | pIC50 [9] | Ratio IC50 [10] | Ratio IC50 [11]
1 | COc1cccc(C(=O)OC[C@@H](OC(C)=O)[C@H]2OC(=O)C=C[C@H]2OC(C)=O)c1 | 5.57 | 6.05 | 5.08 | 4.59 | 5.33 | 5.13 | 5.71 | 4.96 | 4.04 |  | 
2 | COc1cccc2c1C(=O)c1c(O)c3c(c(O)c1C2=O)C[C@@](O)(C(=O)CO)C[C@@H]3O[C@H]1C[C@H](N)[C@H](O)[C@H](C)O1 [DOXORUBICIN] |  | 6.04 |  |  |  |  |  |  |  |  | 
3 | CC(=O)O[C@@H]1C=CC(=O)O[C@@H]1[C@@H](COC(=O)/C=C/c1ccccc1)OC(C)=O | 6.55 | 4.61 | 6.60 | 4.95 | 4.80 | 5.84 | 6.68 | 5.69 | < 4.00 | 2.5 | 
4 | CC(=O)O[C@@H]1C=CC(=O)O[C@@H]1[C@@H](COC(=O)c1c(Cl)cc(Cl)cc1Cl)OC(C)=O | 5.99 | 4.44 | 5.20 | 4.95 | 6.21 | 7.70 | 4.85 | 5.37 | 4.34 |  | 4.5
5 | CC(=O)O[C@@H]1C=CC(=O)O[C@@H]1[C@@H](COC(=O)c1ccccc1)OC(C)=O | 5.12 | 5.92 | 4.85 | 4.43 | 4.58 | 5.65 | 5.14 | 4.79 | < 4.00 |  | 
